In patent US11389396B2, “Tumescent antibiotic injection for treatment of chronic skin and soft tissue infections” (The Regents of the University of California, priority 2016, dated 2022):

Assays:
[1] = healthy tissue; cited from earlier work
[2] = CT images roughly every 10 min of 20 mL tumescent injections, local fraction of contrast
Protocol: In a different experiment we took CT images roughly every 10 min instead of every hour in order to see the initially rapid dynamics. An axial cross-sectional image is shown in FIG. 14 before and after two 20 mL tumescent injections on symmetric sides of the anesthetized adult Yucatan pig's abdomen.
The initial rise is due to the spreading of the tumescent fluid after the completion of the injection into unexpanded tissue. […] We verified this by multiplying the total volume and mean curves to get a measure of the “total contrast” that remains localized in the tumescence (FIG. 15 bottom, left). Dividing the total contrast curve by its maximum yields the “Localized Fraction” curves of FIG. 15 (bottom, right).

[3] = CT scans over seven hours of tumescent injections of saline containing iodine contrast; assay type: in vivo, Yucatan pig
Protocol: To more accurately determine the timescale over which the local antibiotic concentration remains high, we performed CT scans over a long time period.
The figures are CTs viewing the abdomen of the pig with the head towards the top of the figure. Tumescent injections are seen as 4 rows, and 2 columns of large circular white regions, with injection volumes 20 mL, 10 mL, 5 mL and 2.5 mL from top row to bottom. There is one column of 4 tiny white dots along the center of the abdomen that are skin markers placed in the same axial plane as the location of the injections for reference. It is clear that the iodine concentration may remain high for several hours. While the 20 mL injections are clearly visible for 5 hours, the 2.5 mL injections are easily seen for only 3 hours.
Each value along the lineout represents the max attenuation value below that point on a line perpendicular to the surface (Maximum Intensity Projection mode). For comparison, we measured the attenuation of a vial of pure infusate to be 500 HU, and the attenuation of normal subcutaneous tissue to be about −90 HU. A concentration equal to at least half the initial value (or attenuation of […]—half way between the extremes) is maintained for at least 4 hours.

[4] = in vivo; cited from earlier work
[5] = system: MRSA strains; details: 1 g/100 mL cefazolin in tumescent solution; cited from earlier work

CNC[C@H](O)c1ccc(O)c(O)c1 [epinephrine]
systemic absorption time extended by use of a vasoconstrictor [1]: > 8 h

II [iodine]
drop in the local fraction (take-up by lymph and capillaries) ([2]; over the 70 minutes of the experiment, anesthetized adult Yucatan pig): ~30%
timescale of spontaneous spreading ([2]; tumescent injection, CT): < 5 min
timescale of take up by the serum ([2]; tumescent injection, CT): ~1 h
time for which the injection is easily seen on CT ([3]; 2.5 mL subcutaneous abdominal injection, saline with 2 g/100 mL iodine contrast, healthy adult Yucatan pig): 3 h
time for which the injection is clearly visible on CT ([3]; 20 mL subcutaneous abdominal injection, saline with 2 g/100 mL iodine contrast, healthy adult Yucatan pig): 5 h
time for which a concentration of at least half the initial value is maintained ([3]; CT lineouts, maximum intensity projection, attenuation 155 as half way point): at least 4 hours

CO/N=C(\C(=O)N[C@@H]1C(=O)N2C(C(=O)O)=C(CSc3nc(=O)c(=O)[nH]n3C)CS[C@H]12)c1csc(N)n1 [Ceftriaxone]
concentration shown to be safe, relative to 1 g/100 mL cefazolin [4]: 35 times higher concentrations

Cc1nnc(SCC2=C(C(=O)O)N3C(=O)[C@@H](NC(=O)Cn4cnnn4)[C@H]3SC2)s1 [cefazolin]
concentration relative to the MIC [5]: above the MIC for most, if not all, MRSA strains
